From PubChem BioAssay (NCI)
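96-well plates; 48 h exposure; 5 concentrations. Endpoints by linear interpolation between flanking doses. Not reached: highest tested concentration assigned. TGI denotes the concentration required for complete inhibition of growth.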

Tests used:
Assay in all cases: growth of human tumour cells (NCI), 48 h
HT29 colon = test system: HT29 colon
UACC-257 melanoma = test system: UACC-257 melanoma
ACHN renal = test system: ACHN renal
COLO 205 colon = test system: COLO 205 colon
SK-MEL-28 melanoma = test system: SK-MEL-28 melanoma
IGROV1 ovarian = test system: IGROV1 ovarian
CCRF-CEM leukemia = test system: CCRF-CEM leukemia
NCI-H23 lung = test system: NCI-H23 lung
HCT-116 colon = test system: HCT-116 colon
SW-620 colon = test system: SW-620 colon
RPMI-8226 leukemia = test system: RPMI-8226 leukemia

SMILES | TGI (HT29 colon) [µM] | TGI (UACC-257 melanoma) [µM] | TGI (ACHN renal) [µM] | TGI (COLO 205 colon) [µM] | TGI (SK-MEL-28 melanoma) [µM] | TGI (IGROV1 ovarian) [µM] | TGI (CCRF-CEM leukemia) [µM] | TGI (NCI-H23 lung) [µM] | TGI (HCT-116 colon) [µM] | TGI (SW-620 colon) [µM] | TGI (RPMI-8226 leukemia) [µM]
CN(C(=O)C12C3C4C1C1C2C3C41C(=O)O)C(C)(C)C (stereo not drawn) | > 100 | > 100 | > 100 | > 100 | > 100 | > 100 | > 100 | > 100 | > 100 | > 100 | 
COC1=C(OC)C(=O)c2cc(SC)c(=O)c(SC)cc2C1=O | > 100 | 21.6 | 28.9 | > 100 | 26.7 | > 100 | 4.93 | 20.2 | 46.3 | > 100 | 40.2
C(=C\c1ccccc1)/Cn1nc(-c2ccccc2)nc1-c1cnccn1 | > 100 | > 100 |  | > 100 | > 100 | > 100 | > 100 | > 100 | > 100 | > 100 | > 100
COC(=O)CC[N+]1([O-])CC1 | > 100 | > 100 | > 100 | > 100 | > 100 | > 100 | > 100 | > 100 | > 100 | > 100 | > 100
COc1ccc(-c2cc(-c3ccccc3)c3c(n2)-c2ccccc2NC(=O)C3)cc1 | > 100 | > 100 | > 100 | > 100 | > 100 | 52.6 |  | > 100 | > 100 | > 100 | > 100
COc1cc2c(cc1C)NC(=O)/C2=C\c1cccnc1 | > 100 | 28.4 | > 100 | 39.8 | > 100 |  | > 100 | 23.3 | > 100 | 84.8 | 55.5
COc1ccccc1-c1n[nH]c(-c2ccccc2O)n1 | > 100 | > 100 | > 100 | > 100 | > 100 |  | > 100 | > 100 | > 100 | > 100 | > 100
COc1cccc2c1C(=O)c1c(O)c3c(c(O)c1C2=O)CC(O)(C(C)=O)CC3OC1CC([N+](C)(C)C)C(O)C(C)O1 (stereo not drawn) | > 100 | > 100 | > 100 | > 100 | > 100 | > 100 | > 100 | > 100 | > 100 | > 100 | > 100
CCOC(=O)c1nc2cc(F)c(F)cc2nc1NCc1cc(OC)c(OC)c(OC)c1 | > 100 | > 100 | > 100 | > 100 | > 100 | > 100 | > 100 | > 100 | > 100 | > 100 | 
O=S(=O)(O)c1cc(S(=O)(=O)O)c2c(N=Nc3ccccc3)c(O)ccc2c1 | > 100 | > 100 |  | > 100 | > 100 | > 100 | > 100 | > 100 | > 100 | > 100 | > 100
